Assay results published in US8129558B2, “Pesticide naphthyloxy substituted phenylamidine derivatives” (Bayer Cropscience AG, priority 2005, dated 2012).

Tested on: not listed separately
Assay: logP determination by HPLC on reversed-phase column (C18), EEC Directive 79/831 Annex V.A8
Assay type: physicochemical
Details: C18, 40° C., 0.1% aqueous formic acid and acetonitrile
Experimental: Calibration was carried out using unbranched alkan-2-ones (comprising 3 to 16 carbon atoms) with known logP values (determination of the logP values by the retention times using linear interpolation between two successive alkanones).

`COc1ccc2cc(Oc3cc(C)c(N=CN(C)C(C)C)cc3C)ccc2c1` [Compound 30] and `COc1ccc2ccc(Oc3cc(C)c(N=CN(C)C(C)C)cc3C)cc2c1` [Compound 16] are within 0.2 log units of each other in logPa: 2.70 for the first, 2.56 for the second.

`CCCN(C)C=Nc1cc(C)c(Oc2ccc3cc(C(=O)c4ccccc4)ccc3c2)cc1C` [Compound 15] and `CCN(C)C=Nc1cc(C)c(Oc2ccc3cc(C(=O)c4ccccc4)ccc3c2)cc1C` [Compound 14] are within 0.2 log units of each other in logPa: 2.77 for the first, 2.66 for the second.

Going from `CCCCNc1ccc2ccc(Oc3cc(C)c(N=CN(C)C(C)C)cc3C)cc2c1` [Compound 20] to `CCCCNc1ccc2ccc(Oc3cc(C)c(N=CN(C)CC)cc3C)cc2c1` [Compound 24], the logPa falls from 2.91 to 2.62.

`CCCN(C)C=Nc1cc(C)c(Oc2ccc3ccc(OC)cc3c2)cc1C` [Compound 18] and `CCN(C)C=Nc1cc(C)c(Oc2ccc3ccc(OC)cc3c2)cc1C` [Compound 17] are within 0.2 log units of each other in logPa: 2.61 for the first, 2.44 for the second.

Compared with `CCN(C)C=Nc1cc(C)c(Oc2ccc3cc(C(O)c4ccccc4)ccc3c2)cc1C` (racemic) [Compound 19], `CCN(C)C=Nc1cc(C)c(Oc2ccc3cc(C(=NOC)c4ccccc4)ccc3c2)cc1C` [Compound 28] is higher in logPa: 2.21 for the first, 3.05 for the second.

Compared with `Cc1cc(Oc2ccc3ccccc3c2)c(C)cc1N=CN1CCNCC1` [Compound 22], `Cc1cc(Oc2ccc3ccccc3c2)c(C)cc1N=CN1CCCC1` [Compound 26] is higher in logPa: 1.55 for the first, 2.33 for the second.

Going from `CON=C(c1ccccc1)c1ccc2cc(Oc3cc(C)c(N=CN(C)C(C)C)cc3C)ccc2c1` [Compound 27] to `Cc1cc(Oc2ccc3cc(C(=O)c4ccccc4)ccc3c2)c(C)cc1N=CN(C)C(C)C` [Compound 13], the logPa falls from 3.20 to 2.75.

First: Cc1cc(Oc2ccc3ccccc3c2)c(C)cc1N=CN(C)C(C)C [Compound 4]
Second: Cc1cc(Oc2ccc3cc(Br)ccc3c2)c(C)cc1N=CN(C)C(C)C [Compound 7]
The logPa of the first is lower: 2.52 for the first, 2.92 for the second.

`CCN(C)C=Nc1cc(C)c(Oc2cccc3ccccc23)cc1C` [Compound 32] and `CC(=O)O.CCN(C)C=Nc1cc(C)c(Oc2ccc3ccccc3c2)cc1C` [Compound 34] are within 0.2 log units of each other in logPa: 2.43 for the first, 2.33 for the second.

Compared with `CCCN(C)C=Nc1cc(C)c(Oc2ccc3cc(C(=NOC)c4ccccc4)ccc3c2)cc1C` [Compound 29], `CCN(C)C=Nc1cc(C)c(Oc2ccc3ccccc3c2)cc1C.O=C(O)c1ccccc1` [Compound 36] is lower in logPa: 3.14 for the first, 2.44 for the second.

Going from `CCN(C)C=Nc1cc(C)c(Oc2ccc3cc(Br)ccc3c2)cc1C` [Compound 8] to `CCCN(C)C=Nc1cc(C)c(Oc2ccc3cc(Br)ccc3c2)cc1C` [Compound 9], the logPa rises from 2.69 to 2.89.

`CCN(C)C=Nc1cc(C)c(Oc2ccc3cc(C#N)ccc3c2)cc1C` [Compound 11] and `CCCN(C)C=Nc1cc(C)c(Oc2ccc3cc(C#N)ccc3c2)cc1C` [Compound 10] are within 0.2 log units of each other in logPa: 2.07 for the first, 2.23 for the second.

Compared with `Cc1cc(Oc2ccc3ccccc3c2)c(C)cc1N=CN1CCN(C)CC1` [Compound 23], `Cc1cc(Oc2ccc3ccccc3c2)c(C)cc1N=CN1CCOCC1` [Compound 21] is higher in logPa: 1.64 for the first, 2.21 for the second.

`Cc1cc(Oc2ccc3ccc(O)cc3c2)c(C)cc1N=CN(C)C(C)C` [Compound 6] and `CCN(C)C=Nc1cc(C)c(Oc2ccc3ccc(O)cc3c2)cc1C` [Compound 5] are within 0.2 log units of each other in logPa: 2.02 for the first, 1.92 for the second.

Going from `CCN(C)C=Nc1cc(C)c(Oc2ccc3ccccc3c2)cc1C.O=C(O)C(=O)O` [Compound 35] to `CCCCNc1ccc2ccc(Oc3cc(C)c(N=CN(C)CCC)cc3C)cc2c1` [Compound 25], the logPa rises from 2.25 to 2.91.

Compared with `Cc1cc(Oc2ccc3cc(S(=O)(=O)NCCO)ccc3c2)c(C)cc1N=CN(C)C(C)C` [Compound 31], `Cc1cc(Oc2ccc3cc(C#N)ccc3c2)c(C)cc1N=CN(C)C(C)C` [Compound 12] is higher in logPa: 1.75 for the first, 2.20 for the second.

Same assay, conditions: pH 2.3, C18

Going from `Cc1cc([N+](=O)[O-])c(C)cc1Oc1ccc2ccccc2c1` [4-(naphthyl-2-oxy)-2,5-dimethylnitrobenzene] to `CCN(C)C=Nc1cc(C)c(Oc2ccc3ccccc3c2)cc1C` [Compound 1, N-ethyl-N-methyl-N′-[4-(naphthyl-2-oxy)-2,5-xylyl]form-amidine], the “log P (pH 2.3)” value falls from 5.04 to 2.38.

With `Cc1cc(Oc2ccc3ccccc3c2)c(C)cc1N=CN1CCCCC1` [Compound 2, Piperidinyl-N-[4-(naphthyl-2-oxy)-2,5-xylyl]form-amidine] the “log P (pH 2.3)” value was 2.51.

Tested on: Myzus persicae
Assay: Efficacy Example H: in vivo protective test on Myzus persicae (MYZUPE)
Details: Chinese cabbage leaf-disks infected with all instars of green peach aphid, sprayed; concentration and time not given
Experimental: in vivo Protective Test on Myzus persicae (MYZUPE)
(§1) To produce a suitable preparation of active compound, 1 part by weight of active compound is mixed with the stated amount of solvent and emulsifier, and the concentrate is diluted with emulsifier-containing water to the desired concentration.
Chinese cabbage (Brassica pekinesis) leaf-disks infected with all instars of the green peach aphid (Myzus persicae), are sprayed with a preparation of the active ingredient at the desired concentration.
After the specified period of time, mortality in % is determined. 100% means that all aphids have been killed; 0% means that none of the aphids have been killed.

With `CCN(C)C=Nc1cc(C)c(Oc2ccc3ccc(OC)cc3c2)cc1C` [Compound 17] the “activity (mortality in %)” value was “good activity”.

Tested on: Heliothis viresens
Assay: Efficacy Example I: in vivo protective test on Heliothis viresens (HELIVI)
Design: species or system Heliotis virescens
Details: soybean leaf sections sprayed, infested with eggs of cotton bollworm; concentration and time not given
Experimental: in vivo Protective Test on Heliothis viresens (HELIVI)
as §1
Soybean (Glycine max.) leaf sections are sprayed with a preparation of the active ingredient of the desired concentration. Once dry, the leaf sections are infested with eggs of cotton bollworm (Heliotis virescens).
After the specified period of time, mortality in % is determined. 100% means that all eggs have been killed and 0% means that none of the eggs have been killed.

With `Cc1cc(Oc2ccc3cc(C(=O)c4ccccc4)ccc3c2)c(C)cc1N=CN(C)C(C)C` [Compound 13] the “activity (mortality in %)” value was “good activity”.
For `CCCN(C)C=Nc1cc(C)c(Oc2ccc3cc(C#N)ccc3c2)cc1C` [Compound 10], the “activity (mortality in %)” value was “good activity”.
